Laboratory results published in US12031897B2, “Target-locking single-molecule nanoscopy” (Memorial Sloan Kettering Cancer Center, priority 2019, dated 2024).
Entries after “also recorded” stand apart in the source; their conditions may differ.

How the values were obtained:
[1] = test system: Pou5f1 transcription site (MCP-mNeonGreen nascent RNA); assay: MCP-mNeonGreen nascent transcription at the endogenous Pou5f1 locus in mESCs (live-cell imaging); assay type: cell-based, mouse; conditions: for MCP-mNeonGreen exponential decay time: Pou5f1, mESCs, 10 μM flavopiridol, 10 μM triptolide or 1 μM JQ1, mean±S.D.
Procedure: All the mESCs were cultured and maintained in +2i media with appropriate selection drugs on 0.1% gelatin-coated dishes, at 37° C. in a humidified 5% CO2 incubator. +2i media contain D-MEM (Thermo Fisher Scientific 10313021), 15% fetal bovine serum (Gemini Bio 100-500), 0.1 mM β-mercaptoethanol (Thermo Fisher Scientific 21985023), 2 mM L-alanyl-L-glutamine (Thermo Fisher Scientific 35050079), 1×MEM nonessential amino acids (Thermo Fisher Scientific 11140076), 1000 U/mL LIF (Millipore ESG1107), […] (Millipore 361559) and 1 μM PD0325901 (Axon Medichem 1408). OMG and NMG SNAP-Rpb1 cells were cultured with +2i media plus 3 μg/ml α-amanitin.
(§1) Before imaging, cells were seeded onto 8-chamber coverglass (LabTek, 155411) coated with 5 μg/ml laminin (BioLamina LN511), in −2i media (OMG) or +2i media (NMG) and appropriate drugs. For SiR staining, cells were labeled with media containing 0.3 μM SiR-BG for 10 mins, at 37° C., followed by three washes with new media.
Wide-Field Cell Imaging Experiments. Live cell imaging experiments (tdPCP-EGFP and MCP-mNeonGreen tracking). For time-lapse imaging, a z-stack of 11 frames at 1 frame/second was acquired, by stepping the sample along the z-axis using the nanopositioning stage (250 nm steps). The CCD data were analyzed using IDL 6.4 (ITTVIS). Maximum projection images were calculated for each stack, and the resulting 11 sec/frame movie was used to track the intensities of individual tdPCP-EGFP-tagged transcription sites. A particle tracking routine (Crocker and Grier, 1996) was used for finding the positions of the transcription site in each frame and linking them into a 2D trajectory. The intensity trace of tdPCP-EGFP at the transcription site was corrected for photo-bleaching using the time trace of tdPCP-EGFP in a nearby nuclear region. The auto-correlation function was calculated (for the tdPCP-EGFP fluctuation analysis), or the data were imported in Origin 8.5.0 (OriginLab) and the trace fitted to a single-exponential decay (for the transcription inhibition experiments).

[2] = test system: Pol II (SiR-Rpb1) at the Pou5f1 transcription site; assay: SiR-Rpb1 (Pol II) dynamics at Pou5f1 after drug addition (target-locking); assay type: cell-based, mouse; conditions: for Rpb1 exponential decay time from fits: Pou5f1, 10 μM flavopiridol, 10 μM triptolide or 1 μM JQ1; for Pol II signal at Pou5f1 upon transcription inhibition: paralleled by nascent RNA loss
Procedure: The images obtained from the Ixon3 897 detector (e.g., detection system 150) were analyzed on the fly by non-linear least-squares fitting of a 21×21 pixel ROI to a 2D Gaussian peak function implemented in LabVIEW. Axial localization was achieved either though the degree of defocus or based on astigmatism. The coordinates returned by the 2D Gaussian peak fit were passed onto a PID controller that calculated the desired position correction that was commanded to the nanopositioning stage controller. The LabVIEW application ran at sustained speeds of up to 30 frames/second. Before imaging, cells were seeded onto 8-chamber coverglass (LabTek, 155411) coated with 5 μg/ml laminin (BioLamina LN511), in −2i media (OMG) or +2i media (NMG) and appropriate drugs. For SiR staining, cells were labeled with media containing 0.3 μM SiR-BG for 10 mins, at 37° C., followed by three washes with new media. OMG-1 or NMG mESCs (1×106) were transfected with 10 μg PB007-EF1α-Flag-SNAP-Rpb1 (αAmR) and 1 μg pCMV-hyPBase vectors using Lipofectamine 2000 (Invitrogen 11668019). Cells were subjected to 3 mg/ml α-amanitin 2 days post-transfection. Individual α-amanitin-resistant colonies were picked after ˜2 weeks, expanded, labeled with SiR-BG and imaged.

[3] = target: T1, Brd4 foci at the Pou5f1 locus (Mus musculus, UniProt Q9ESU6); assay: Brd4 cluster signal at Pou5f1 upon inhibition (live-cell confocal/STED scans); assay type: cell-based; conditions: for Brd4 signal at Pou5f1 upon inhibition: 1 μM JQ1 (within 1 min) or 10 μM Flavopiridol
T1 construct: integrating a SNAP-tag at the N-terminus of the endogenous Brd4; endogenous in cells; host or cells: mouse ESCs OMG-1, homozygous SNAP-Brd4 knock-in clone 9 (printed as 'OMG SNAP-Cdk9 clone 9')
Procedure: For real-time confocal and STED imaging, example implementations may program the wave generator to scan 2 μm×2 μm or 1 μm×1 μm xy areas in 0.8 sec or 0.2 sec respectively. 3D scanning was performed (via, e.g., detection system 150) by acquiring 5 xy scans while moving the stage by 0.5 μm in z between scans. TTL pulses corresponding to single-photon events from the APDs, together with the trigger pulses from the wave generator were detected using a field-programmable gate array (FPGA) data acquisition system (National Instruments, PCIe-7852R).
as §1
To generate OMG or NMG SNAP-Brd4 targeted cells, OMG-1 or NMG mESCs (1×106) were transfected with 10 μg SNAP-Brd4 donor vector and 0.6 μg espCas9-gRNA-Brd4 vector. 10 days after transfection, the cells were trypsinized, labeled with SiR-BG and subjected to FACS, generating a first-round SiR-positive pool. This pool was then expanded, stained with SiR-BG and subjected to second FACS round and individual clones were picked and expanded.

[4] = test system: Sox2 foci at the Pou5f1 locus; assay: Sox2 cluster signal at Pou5f1 upon inhibition (live-cell confocal/STED scans); assay type: cell-based, mouse; conditions: 1 μM JQ1 or 10 μM Flavopiridol
Source text: Contrary to Brd4, Med22 and Cdk9, Sox2 clustering persists through transcription inhibition by either JQ1 or FVP (FIG. 8D). The differential sensitivities between factors and modes of transcription inhibition unveil a hierarchy of molecular transactions that control Pou5f1 transcription: Sox2 binding occurs upstream of Cdk9/Med22/Brd4 recruitment and accumulation of all of 4 regulatory factors occurs upstream of Pol II release into productive elongation. […] For real-time confocal and STED imaging, example implementations may program the wave generator to scan 2 μm×2 μm or 1 μm×1 μm xy areas in 0.8 sec or 0.2 sec respectively. 3D scanning was performed (via, e.g., detection system 150) by acquiring 5 xy scans while moving the stage by 0.5 μm in z between scans. TTL pulses corresponding to single-photon events from the APDs, together with the trigger pulses from the wave generator were detected using a field-programmable gate array (FPGA) data acquisition system (National Instruments, PCIe-7852R). Before imaging, cells were seeded onto 8-chamber coverglass (LabTek, 155411) coated with 5 μg/ml laminin (BioLamina LN511), in -2i media (OMG) or +2i media (NMG) and appropriate drugs. For SiR staining, cells were labeled with media containing 0.3 μM SiR-BG for 10 mins, at 37° C., followed by three washes with new media. Targeted integration of SNAP-tag in the endogenous Sox2, Cdk9, Brd4 and Med22 genes. To generate OMG or NMG SNAP-Sox2 targeted cells, OMG-1 or NMG mESCs (1×106) were transfected with 10 μg SNAP-Sox2 donor vector and 0.6 μg […] vector. 10 days after transfection, the cells were trypsinized, labeled with 0.3 μM SiR-BG for 10 mins, rinsed three times with new media, followed by immediate fluorescence-activated cell sorting (FACS). All the SiR-positive cells were collected, expanded for 2 weeks, trypsinized, labeled with SiR-BG and sorted again. Almost 100% SNAP positive pools were obtained from the second round of sorting and individual clones were picked and expanded. Homozygous clones (dubbed “OMG SNAP-Sox2 clone 8” and NMG SNAP-Sox2 clone 3'' respectively) with both Sox2 alleles correctly targeted with SNAP-tag integrations and that show SiR nuclear staining were selected for all further experiments.

Structure (SMILES) | Hill equation n, relative MCP signal vs. [JQ1] ([1]; Pou5f1) | MCP-mNeonGreen exponential decay time [1] [s] | response of individual Pou5f1 transcription sites at intermediate inhibitor concentration ([1]; intermediate [A-485] or [JQ1]) | Pou5f1 transcription activity ([1]; upon JQ1 (FIG. 7A, 1 μM)) | Rpb1 exponential decay time from fits [2] [s] | Brd4 signal at Pou5f1 upon inhibition [3] | Hill equation n, relative Brd4 signal at Pou5f1 vs. [JQ1] ([3]; Pou5f1) | Sox2 clustering at Pou5f1 upon transcription inhibition [4] | Pol II signal at Pou5f1 upon transcription inhibition [2]
Cc1sc2c(c1C)C(c1ccc(Cl)cc1)=N[C@@H](CC(=O)OC(C)(C)C)c1nnc(C)n1-2 [JQ1] | 1.1±0.7 | 300 ± 136 | decays to a new finite plateau; also recorded: attenuated output, without completely shutting down | abruptly abolishes | 310 ± 123 | drop sharply | 1.3±0.3 | persists | 
CN1CC[C@H](c2c(O)cc(O)c3c(=O)cc(-c4ccccc4Cl)oc23)[C@H](O)C1 [flavopiridol] |  | 378 ± 193 |  |  | 347 ± 104 | not lost |  | persists | gradual Pol II signal loss
CC(C)[C@]12O[C@H]1[C@@H]1O[C@]13[C@]1(O[C@H]1C[C@H]1C4=C(CC[C@@]13C)C(=O)OC4)[C@@H]2O [triptolide] |  | 378 ± 115 |  |  | 565 ± 109 |  |  |  | gradual Pol II signal loss
